Test results: patent US7776572B2, “Method for reducing loss of enzyme activity during storage” (Corning Incorporated, priority 1996, dated 2010)

Key:
Horse IgG = experiment: Protein binding by colloidal gold staining, coated medium binding polystyrene plates; conditions: coated medium binding PS; IgG 10 μg/ml, pH 9.4
Description: Except where indicated, the non-ionic surfactants were applied to the hydrophobic surfaces being tested as a 0.1% (weight/volume) solution in isopropanol. A sufficient amount of coating solution was used to cover the surface being testing with a thin layer of the solution (e.g., 25 μl of the solution per well for a standard 24-well plate). In some cases, the solution was applied to surface by spraying; in others, it was poured onto the surface (into the well). Except where indicated, coated samples were either dried at 70° C. for 30 minutes in an air circulated oven or dried at room temperature overnight to evaporate the isopropanol.
Protein binding was determined in some examples using a colloidal gold straining procedure. In accordance with this procedure, colloidal gold becomes electrostatically attached to bound protein and is detected by measuring absorbance at 550 nanometers. Bio-Rad Laboratories' Colloidal Gold Total Protein Stain was used for this purpose, with absorbance being measured with a Cambridge Technologies Plate Reader (No. 7520).
The surfactants were coated onto medium binding polystyrene plates (Corning Costar No. 2587) as described in Material and Methods.
The plates were incubated with IgG as follows: 0.1 ml of Horse IgG (Pierce Labs) at a working concentration of 10 μg/ml in 0.10M NaHCO3 buffer (pH9.4) were added to each well, incubated 30 minutes on a rocker table, and rinsed with dI H2O. The plates were gold stained overnight (0.3 ml/well), rinsed in dI H2O, air dried, and absorbance was measured at 550 nm.

IgG [1] = experiment: IgG/Au staining of coated polystyrene, type of endgroups
Description: Except where indicated, the non-ionic surfactants were applied to the hydrophobic surfaces being tested as a 0.1% (weight/volume) solution in isopropanol. A sufficient amount of coating solution was used to cover the surface being testing with a thin layer of the solution (e.g., 25 μl of the solution per well for a standard 24-well plate). In some cases, the solution was applied to surface by spraying; in others, it was poured onto the surface (into the well). Except where indicated, coated samples were either dried at 70° C. for 30 minutes in an air circulated oven or dried at room temperature overnight to evaporate the isopropanol. Protein binding was determined in some examples using a colloidal gold straining procedure. In accordance with this procedure, colloidal gold becomes electrostatically attached to bound protein and is detected by measuring absorbance at 550 nanometers. Bio-Rad Laboratories' Colloidal Gold Total Protein Stain was used for this purpose, with absorbance being measured with a Cambridge Technologies Plate Reader (No. 7520). The non-ionic surfactants listed in Table 6 were tested for their ability to produce a low binding surface using the techniques described in Materials and Methods. Polystyrene was used as the hydrophobic test surface and IgG/Au staining was used as the readout.

HRP-Goat A'Mouse IgG = experiment: Enzymatic determination of protein binding to coated medium binding polystyrene plate; conditions: coated medium binding PS; versus uncoated high binding polystyrene plate; absorbance 405 nm
Description: The surfactants were coated onto a medium binding polystyrene plate (Corning Costar No. 2587) as described in Material and Methods. A medium binding polystyrene plate (Corning Costar No. 2587) and a high binding polystyrene plate (Corning Costar No. 2581) were used as controls.
(a) HRP-Goat A'Mouse IgG: Kirkegaard & Perry Laboratories, Inc. Catalog No. 074-1806. Stock solution: 0.5 mg/ml; working concentration: 0.04 μg/ml. The working concentration was obtained by adding 11 μl of the stock solution per 25 mls of PBS pH 7.4 to produce a work stock (WS), and then diluting 1:6 (i.e., 10 mls WS+50 mls PBS pH 7.4).
(1) 100 μl-well of HRP-Goat A'Mouse IgG at a concentration of 0.04 μg/ml were added to the test wells and incubated for 1 hour at room temperature.
(2) The wells were then washed 5 times with the 1M wash solution. Each wash include a 5 minute soak followed by decanting.
(3) 100 μl/well of substrate (30 mls ABTS+30 mls H2O2) were added to the test wells and incubated for 15 minutes at room temperature in the dark.
(4) 100 μl/well of stopping solution (1% SDS) were added to the test wells.
(5) The plates were then shaken and read at 405 nm.
(6) Reduction in binding was determined by comparing the absorbance measured in step (5) with the absorbance measured for a high binding polystyrene plate which had not been treated with a non-ionic surfactant but otherwise subjected to steps (1) to (5).

Fetal Bovine Serum (FBS) = experiment: Polymer blends molded into petri dishes, FBS protein binding by colloidal gold
IgG [2] = experiment: Coating durability using water washes, IgG binding by colloidal gold; conditions: for Absorbance (550 nm) Initial: coated polystyrene, no water wash; for Absorbance (550 nm) 1 Time 1 hr 23° C. / Absorbance (550 nm) 1 Time 24 hr 23° C. / Absorbance (550 nm) 1 Time 24 hr 37° C. / Absorbance (550 nm) 1 Time 24 hr 70° C.: dI H2O wash 1 time; for Absorbance (550 nm) 6 Times 30 min each 23° C.: dI H2O wash 6 times
Method in brief: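 24-well polystyrene plates coated with surfactants; durability tested by water washes on a rocker. IgG incubated 30 minutes at 23° C. with rocking, then rinsed 3× with water.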

[3] = blended at 1% into ethylene vinyl acetate
[4] = blended at 5% into ethylene vinyl acetate, silver enhancer
[5] = blended at 5% into polypropylene, silver enhancer

Row | Bound Protein Absorbance (550 nm) FBS (Fetal Bovine Serum (FBS); blended at 5% into polystyrene) | Compound | IgG Protein Binding Absorbance (550 nm) (Horse IgG) | Bound Protein Absorbance at 550 nm (IgG [1]) | % Reduction in Protein Binding (HRP-Goat A'Mouse IgG) [%] | Bound Protein Absorbance (550 nm) FBS (Fetal Bovine Serum (FBS); [3]) | Bound Protein Absorbance (550 nm) FBS (Fetal Bovine Serum (FBS); [4]) | Bound Protein Absorbance (550 nm) FBS (Fetal Bovine Serum (FBS); [5]) | Absorbance (550 nm) Initial (IgG [2]) | Absorbance (550 nm) 1 Time 1 hr 23° C. (IgG [2]) | Absorbance (550 nm) 1 Time 24 hr 23° C. (IgG [2]) | Absorbance (550 nm) 1 Time 24 hr 37° C. (IgG [2]) | Absorbance (550 nm) 1 Time 24 hr 70° C. (IgG [2]) | Absorbance (550 nm) 6 Times 30 min each 23° C. (IgG [2])
1 | 0.015 | CCCCCCCC/C=C\CCCCCCCCOCCOCCO [PEO(2) OLEYL ETHER] | 0.00 | 0.00 | 99.9 | 0.291 | 0.000 | 0.000 |  |  |  |  |  | 
2 |  | CCCCCCCCCCCCOCCOCCOCCOCCO [PEO(4) LAURYL ETHER] | 0.00 |  | 99.3 |  |  |  |  |  |  |  |  | 
3 |  | PEO(4) SORBITOL MONO-STEARATE | 0.00 |  | 99.5 |  |  | 0.057 | 0.00 | 0.00 | 0.02 | 0.10 | 0.10 | 0.10
4 |  | PEO(20) SORBITOL TRI-STEARATE | 0.00 | 0.00 | 99.7 |  |  |  | 0.00 | 0.00 | 0.02 | 0.10 | 0.10 | 0.10
5 |  | SORBITOL MONO-OLEATE | 0.00 | 0.00 | 92.7 | 0.371 | 0.000 | 0.000 | 0.00 | 0.00 | 0.00 | 0.00 | 0.00 | 0.00
